Experimental data published in the supplement of paper PMC10307832.

Legend:
Test in all cases: relative viability (nuclei count vs DMSO), 5 days (fraction); higher = more cells survive
[1] = compound: Cc1ccc(F)c(NC(=O)Nc2ccc(-c3cccc4[nH]nc(N)c34)cc2)c1 [Linifanib] + Nc1nc2[nH]cc(CCc3ccc(C(=O)N[C@@H](CCC(=O)O)C(=O)O)cc3)c2c(=O)[nH]1 [Pemetrexed] (partner 0.2 µM)
Outline: (§1)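 Relative viability is defined as nuclei in treated wells over nuclei in vehicle wells. Duplicate plates were run and medians reported. Lung cancer cell lines in 1536-well plates were dosed by pin tool one day after seeding, with one drug or with a fixed anchor-drug dose plus five library-drug doses (not always all listed) in √10 steps, and nuclei were counted after 5 days.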

[2] = compound: Cc1ccc(F)c(NC(=O)Nc2ccc(-c3cccc4[nH]nc(N)c34)cc2)c1 [Linifanib] + C[C@]1(O)C[C@@H](c2nc(-c3ccc4ccc(-c5ccccc5)nc4c3)c3c(N)nccn32)C1 [Linsitinib] (partner 1 µM)
Outline: as §1

[3] = compound: Cc1ccc(F)c(NC(=O)Nc2ccc(-c3cccc4[nH]nc(N)c34)cc2)c1 [Linifanib] + CC1(C)CCC(c2ccc(Cl)cc2)=C(CN2CCN(c3ccc(C(=O)NS(=O)(=O)c4ccc(N[C@H](CCN5CCOCC5)CSc5ccccc5)c(S(=O)(=O)C(F)(F)F)c4)cc3)CC2)C1 [Navitoclax] (partner 0.5 µM)
Outline: as §1

[4] = compound: Cc1ccc(F)c(NC(=O)Nc2ccc(-c3cccc4[nH]nc(N)c34)cc2)c1 [Linifanib] + CC(=O)c1c(C)c2cnc(Nc3ccc(N4CCNCC4)cn3)nc2n(C2CCCC2)c1=O [Palbociclib] (partner 0.5 µM)
Outline: as §1

[5] = compound: Cc1ccc(F)c(NC(=O)Nc2ccc(-c3cccc4[nH]nc(N)c34)cc2)c1 [Linifanib] + CS(=O)(=O)N1CCN(Cc2cc3nc(-c4cccc5[nH]ncc45)nc(N4CCOCC4)c3s2)CC1 [Pictilisib] (partner 1 µM)
Outline: as §1

[6] = compound: Cc1ccc(F)c(NC(=O)Nc2ccc(-c3cccc4[nH]nc(N)c34)cc2)c1 [Linifanib] + COc1cc2c(Oc3ccc(NC(=O)C4(C(=O)Nc5ccc(F)cc5)CC4)cc3F)ccnc2cc1OCCCN1CCOCC1 [Foretinib] (partner 0.25 µM)
Outline: as §1

Cell Line | relative viability ([1]; first compound 0.03162 µM) | relative viability ([1]; first compound 0.1 µM) | relative viability ([1]; first compound 0.3162 µM) | relative viability ([2]; first compound 0.03162 µM) | relative viability ([2]; first compound 0.1 µM) | relative viability ([2]; first compound 0.3162 µM) | relative viability ([3]; first compound 0.03162 µM) | relative viability ([3]; first compound 0.1 µM) | relative viability ([3]; first compound 0.3162 µM) | relative viability ([4]; first compound 0.03162 µM) | relative viability ([4]; first compound 0.1 µM) | relative viability ([4]; first compound 0.3162 µM) | relative viability ([5]; first compound 0.03162 µM) | relative viability ([5]; first compound 0.1 µM) | relative viability ([5]; first compound 0.3162 µM) | relative viability ([6]; first compound 0.03162 µM) | relative viability ([6]; first compound 0.1 µM) | relative viability ([6]; first compound 0.3162 µM)
SW 1573 | 0.857 | 0.879 | 0.777 | 0.853 | 0.845 | 0.743 | 1.03 | 1.28 | 0.897 | 0.367 | 0.448 | 0.366 | 0.43 | 0.517 | 0.417 | 0.897 | 1.21 | 0.843
UMC-11 | 0.763 | 0.772 | 0.787 | 0.921 | 1.06 | 0.911 | 0.304 | 0.41 | 0.366 | 0.342 | 0.309 | 0.335 | 0.859 | 0.865 | 0.819 | 0.986 | 1.16 | 1.04
